Assay results reported in the NIST ThermoML archive (doi:10.1021/je7003116).

Assay: mn = molality of the nth substance listed, in mol/kg
Conditions: for electrical conductivity / mass density: 101 kPa, Liquid; for electrical conductivity: Alternating current cell with electrodes

CC(=O)CC(c1ccccc1)c1c([O-])c2ccccc2oc1=O.[Na+] (stereo not given) [warfarin sodium] + O
Conditions	electrical conductivity [S/m]	mass density [kg/m3]	surface tension liquid-gas [mN/m]
293.15 K, m1 = 0.005	0.0273	–	–
293.15 K, m1 = 0.00573	–	998.701	–
293.15 K, m1 = 0.006	0.0326	–	66.46
293.15 K, m1 = 0.00689	–	998.801	–
293.15 K, m1 = 0.007	0.0379	–	65.61
293.15 K, m1 = 0.00749	–	998.852	–
293.15 K, m1 = 0.008	0.0434	–	64.92
293.15 K, m1 = 0.00851	–	998.94	–
293.15 K, m1 = 0.009	0.0485	–	64.06
293.15 K, m1 = 0.00983	–	999.054	–
293.15 K, m1 = 0.01	0.0535	–	62.77
293.15 K, m1 = 0.018	–	–	58.07
293.15 K, m1 = 0.02	0.1042	–	–
293.15 K, m1 = 0.02401	–	1000.27	–
293.15 K, m1 = 0.027	–	–	52.97
293.15 K, m1 = 0.04	0.198	–	50.48
293.15 K, m1 = 0.0466	–	1002.19	–
293.15 K, m1 = 0.054	–	–	48.47
293.15 K, m1 = 0.06	0.283	–	–
293.15 K, m1 = 0.067	–	–	45.58
293.15 K, m1 = 0.0718	–	1004.26	–
293.15 K, m1 = 0.078	–	–	43.98
293.15 K, m1 = 0.08	0.381	–	–
293.15 K, m1 = 0.089	–	–	41.68
293.15 K, m1 = 0.0984	–	1006.41	–
293.15 K, m1 = 0.1	0.464	–	–
293.15 K, m1 = 0.107	–	–	41.58
293.15 K, m1 = 0.125	0.56	–	40.94
293.15 K, m1 = 0.1251	–	1008.51	–
293.15 K, m1 = 0.15	0.651	1010.43	40.38
293.15 K, m1 = 0.175	0.737	–	40.23
293.15 K, m1 = 0.176	–	1012.59	–
293.15 K, m1 = 0.2	0.822	1014.56	40.72
293.15 K, m1 = 0.225	0.901	1016.71	40.23
293.15 K, m1 = 0.25	0.974	1018.89	39.64
293.15 K, m1 = 0.275	1.041	1020.99	–
293.15 K, m1 = 0.279	–	–	40.09
293.15 K, m1 = 0.3	1.102	1023.15	–
293.15 K, m1 = 0.325	–	1025.24	–
293.15 K, m1 = 0.35	–	1027.33	–
293.15 K, m1 = 0.375	–	1029.29	–
293.15 K, m1 = 0.401	–	1031.33	–
303.15 K, m1 = 0.005	0.0288	–	–
303.15 K, m1 = 0.00579	–	996.134	–
303.15 K, m1 = 0.006	0.0344	–	–
303.15 K, m1 = 0.00695	–	996.231	–
303.15 K, m1 = 0.007	0.04	–	–
303.15 K, m1 = 0.00754	–	996.281	–
303.15 K, m1 = 0.008	0.0455	–	–
303.15 K, m1 = 0.00857	–	996.367	–
303.15 K, m1 = 0.009	0.051	–	–
303.15 K, m1 = 0.00987	–	996.476	–
303.15 K, m1 = 0.01	0.0565	–	–
303.15 K, m1 = 0.02	0.1087	–	–
303.15 K, m1 = 0.024	–	997.658	–
303.15 K, m1 = 0.04	0.209	–	–
303.15 K, m1 = 0.0465	–	999.515	–
303.15 K, m1 = 0.06	0.302	–	–
303.15 K, m1 = 0.0715	–	1001.52	–
303.15 K, m1 = 0.08	0.39	–	–
303.15 K, m1 = 0.0983	–	1003.59	–
303.15 K, m1 = 0.1	0.473	–	–
303.15 K, m1 = 0.125	0.575	1005.62	–
303.15 K, m1 = 0.15	0.67	1007.48	–
303.15 K, m1 = 0.175	0.761	–	–
303.15 K, m1 = 0.2	0.847	–	–
303.15 K, m1 = 0.225	0.928	–	–
303.15 K, m1 = 0.25	1.008	–	–
303.15 K, m1 = 0.275	1.081	–	–
303.15 K, m1 = 0.3	1.154	–	–
